Measurements: patent publication US20240122957A1, “USE OF NICOTINAMIDE MONONUCLEOTIDE (NMN) FOR THE PREVENTION AND/OR TREATMENT OF RHEUMATOID ARTHRITIS, AND CORRESPONDING COMPOSITIONS” (NUVAMID SA, priority 2019, published 2024)
Entries after “also recorded” stand apart in the source; their conditions may differ. Like-named read-outs stand apart in the source and are kept apart here.

What was measured:
[1] = Weight and tolerance of mice in the K/BxN serum RA model
Procedure: (§1) In brief, 8-week-old female C57BL6/J mice, weighing between 18-20 g on day 0 of the experiments, were divided into 4 group of 10 mice each: (i) a control group, in which the mice were treated with vehicle, i.e. a 0.9% NaCl solution (10 mL/kg), marked ‘Vehicle’; (ii) a group of mice treated with K/BxN serum (10 mL/kg), marked ‘KBxN’; (iii) a group of mice treated with K/BxN serum+dexamethasone (1 mg/kg), marked ‘KBxN+dexamethasone’; and (iv) a group of mice treated with K/BxN serum+NMN (185 mg/kg), marked ‘KBxN+NMN’.
(§2) The administration of this serum induced chronic joint inflammation in mice in order to mimic RA. […] Here, NMN was used in zwitterionic form. KBxN serum and NMN were administered intraperitoneally to the nice. Dexamethasone was administered subcutaneously.
(§3) The mice were treated for 9 days under the conditions set forth supra. Photos of the paws of the mice were taken on the 6th day of treatment. […] The clinical score and weight of the mice were measured daily. The clinical score was determined by measuring the thickness of each of the front and rear paws of the mice, and adding the associated score according to table 1 infra:
(§4) The statistical analysis of the results was carried out using two-factor ANOVA combined with the Dunnett multiple comparison test.

[2] = in vivo
Procedure: as §1, §2, §3, §4

[3] = system: C57BL6/J mice treated with K/BxN serum (RA model); assay: K/BxN serum-induced RA model in mice (clinical score, paw thickness, paw photographs); type: in vivo
Procedure: Here, NMN was used in zwitterionic form. […] Dexamethasone was administered subcutaneously.

## C[C@@H]1C[C@H]2[C@@H]3CCC4=CC(=O)C=C[C@]4(C)[C@@]3(F)[C@@H](O)C[C@]2(C)[C@@]1(O)C(=O)CO [dexamethasone]
[1]; day 6 of treatment, FIG. 4
  paw appearance compared to mouse treated with vehicle (photographs): much more slender than that of the mouse treated with vehicle
[1]; relative to KBxN group, NMN 185 mg/kg intraperitoneally, dexamethasone 1 mg/kg subcutaneously, 9 days, FIG. 1
  average weight of mice (weight loss): additional and significant weight loss

## NC(=O)c1ccc[n+]([C@@H]2O[C@H](COP(=O)([O-])O)[C@@H](O)[C@H]2O)c1 [NMN, nicotinamide mononucleotide]
[2]
  paw appearance compared to mouse treated with vehicle (photographs): volume similar to that of the mouse treated with vehicle
[3]; day 6 of treatment, compared to mouse treated with K/BxN, FIG. 4
  paw swelling (photographs of the paws): substantially reduces paw swelling
[3]; versus KBxN group, NMN 185 mg/kg intraperitoneally, dexamethasone 1 mg/kg subcutaneously, FIG. 3
  average paw thickness (ankle joint inflammation): significantly reduced ankle joint inflammation starting on day 5
[3]; versus KBxN group, NMN 185 mg/kg intraperitoneally, dexamethasone 1 mg/kg subcutaneously, measured daily, 9 days, FIG. 2
  average clinical score: significant reduction in clinical score starting on day 5; also recorded: pronounced starting on day 8
[1]; K/BxN serum-treated mice, NMN 185 mg/kg intraperitoneally, 9 days, FIG. 1
  tolerance: well tolerated
